Experimental data taken from publication PMC8294059, “Identification and Immune Assessment of T Cell Epitopes in Five Plasmodium falciparum Blood Stage Antigens to Facilitate Vaccine Candidate Selection and Optimization” (Frontiers in Immunology, 2021).
Where a SMILES comes first, the peptide text is derived from it.

Legend:
HLA-B*0702 = HLA-B*0702 (Homo sapiens, UniProt P01889); assay: In vitro class I HLA binding assay (fluorescence polarization competition); conditions: allele B*0702; fluorescence polarization competition; read-out: IC50 (nM), in vitro HLA binding affinity
Protocol: A cell-free class I HLA binding assay that allows for in vitro quantification of peptide-HLA binding affinity in a competition format was used. In this assay, a fluorescently labeled, high binding, control peptide is loaded onto 384-well ½-area plates along with unlabeled experimental peptides. To remove endogenous peptides and render the HLA A and B molecules receptive to binding, HLA is heated at 53°C for 15 minutes and immediately added to the assay. The mixture is then allowed to stand for three days. […] Binding of experimental peptides is expressed as the percent inhibition of the labeled control peptide (experimental fluorescence / control fluorescence, multiplied by 100). The percent inhibition values for each experimental peptide (across a range of molar concentrations) are used to calculate the concentration which inhibits 50% of the labeled control peptide’s specific binding. This value is referred to as the peptide’s IC50.

HLA-DRB1*0101 = target: T1, HLA-DRB1*0101 (Homo sapiens, UniProt P01903+P01911, A100R/D57E/F55L/F60I/F76Y/I96L/L162R/M171V/P40L/Q125E/R42F/V115G/Y59C); assay: biochemical; type: binding; conditions: binding inhibition assay; NB = non-binder (no dose-dependent inhibition); read-out: DRB1*0101 IC50
T1 construct: purchased
In short: (§1)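 IC50 values reflect how well each test peptide displaces a labeled high-affinity reference peptide from commercially available HLA-DRB1 allele monomers. Final test concentrations spanned 100,000 nM to 100 nM, with detection by europium-based time-resolved fluorescence after anti-HLA-DR capture.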

HLA-DRB1*0401 = target: T2, HLA-DRB1*0401 (Homo sapiens, UniProt P01903+P01911, A100K/A169T/F76Y/I96L/K127E/L162R/M171V/N62H/P40V/Q125Y/R42H/S133A/S149N/S66Y/V115G/V209L/W38E); assay: biochemical; type: binding; conditions: binding inhibition assay; NB = non-binder (no dose-dependent inhibition); read-out: DRB1*0401 IC50
T2 construct: purchased
In short: as §1

HLA-DRB1*0701 = HLA-DRB1*0701 (Homo sapiens, UniProt P01903+P01911, A100R/A102G/A103Q/D57E/D86V/E43K/F76Y/K127E/L162R/M171V/P40G/Q125H/Q99D/R33Q/R42Y/R54Q/S133A/S66F/T210M/V115G/Y107V/Y59L/Y89S); assay: biochemical; type: binding; conditions: binding inhibition assay; NB = non-binder (no dose-dependent inhibition); read-out: DRB1*0701 IC50
In short: as §1

HLA-DRB1*0801 = HLA-DRB1*0801 (Homo sapiens, UniProt P01903+P01911, A100R/A103L/A169T/D86S/F76Y/H45Y/I96F/K41T/L162R/M171V/P40S/Q125H/Q178H/Q39Y/Q99D/R218S/R42G/S66Y/V115G/W38E); assay: biochemical; type: binding; conditions: binding inhibition assay; NB = non-binder (no dose-dependent inhibition); read-out: DRB1*0801 IC50
In short: as §1

HLA-DRB1*1101 = HLA-DRB1*1101 (Homo sapiens, UniProt P01903+P01911, A100R/A169T/A87E/I96F/K41T/L162R/M171V/P40S/Q125H/Q178H/Q39Y/Q99D/R42S/S66Y/T262R/V115G/W38E); assay: biochemical; type: binding; conditions: binding inhibition assay; NB = non-binder (no dose-dependent inhibition); read-out: DRB1*1101 IC50
In short: as §1

HLA-DRB1*1301 = HLA-DRB1*1301 (Homo sapiens, UniProt P01903+P01911, A100E/A169T/K41T/L162R/M171V/P40S/Q125H/Q178H/Q39Y/Q99D/R42S/S66N/T262R/W38E/Y61H); assay: biochemical; type: binding; conditions: binding inhibition assay; NB = non-binder (no dose-dependent inhibition); read-out: DRB1*1301 IC50
In short: as §1

HLA-DRB1*1501 = target: T3, HLA-DRB1*1501 (Homo sapiens, UniProt P01903+P01911); assay: biochemical; type: binding; conditions: binding inhibition assay; NB = non-binder (no dose-dependent inhibition); read-out: DRB1*1501 IC50
T3 construct: purchased
In short: as §1

Row | Compound | IC50 (HLA-B*0702) [nM] | IC50 (HLA-DRB1*0101) [µM] | IC50 (HLA-DRB1*0401) [µM] | IC50 (HLA-DRB1*0701) [µM] | IC50 (HLA-DRB1*0801) [µM] | IC50 (HLA-DRB1*1101) [µM] | IC50 (HLA-DRB1*1301) [µM] | IC50 (HLA-DRB1*1501) [µM]
1 | CC(C)C[C@H](NC(=O)[C@H](CC(N)=O)NC(=O)[C@H](CCCCN)NC(=O)[C@H](CCCNC(=N)N)NC(=O)[C@@H]1CCCN1C(=O)[C@@H](N)CS)C(=O)N[C@@H](CCC(N)=O)C(=O)N[C@@H](CC(N)=O)C(=O)N[C@@H](C)C(=O)O [AMA1_302] (H-CPRKNLQNA-OH) | 484 | – | – | – | – | – | – | –
2 | CC[C@H](C)[C@H](NC(=O)[C@@H]1CCCN1C(=O)[C@@H](N)Cc1c[nH]cn1)C(=O)N[C@@H](CCC(=O)O)C(=O)N[C@H](C(=O)N[C@@H](CCC(=O)O)C(=O)N[C@@H](CC(N)=O)C(=O)N[C@@H](CC(N)=O)C(=O)N[C@@H](Cc1ccccc1)C(=O)O)C(C)C [AMA1_433] (H-HPIEVENNF-OH) | 310000 | – | – | – | – | – | – | –
3 | CC(C)C[C@H](NC(=O)[C@@H](NC(=O)[C@@H]1CCCN1C(=O)[C@@H](NC(=O)[C@@H](NC(=O)[C@H](Cc1c[nH]cn1)NC(=O)[C@H](CO)NC(=O)[C@H](C)NC(=O)[C@@H](N)CCCNC(=N)N)[C@@H](C)O)[C@@H](C)O)C(C)C)C(=O)O [AMA1_608] (H-RASHTTPVL-OH) | 258 | – | – | – | – | – | – | –
4 | CC[C@H](C)[C@H](N)C(=O)N1CCC[C@H]1C(=O)N[C@@H](Cc1ccccc1)C(=O)N[C@@H](Cc1c[nH]cn1)C(=O)N[C@@H](CCCCN)C(=O)N[C@@H](CCCCN)C(=O)N[C@@H](Cc1ccccc1)C(=O)N[C@H](C(=O)N[C@@H](CO)C(=O)N[C@@H](Cc1ccccc1)C(=O)O)[C@@H](C)CC [CYRPA_003] (H-IPFHKKFISF-OH) | 21900 | – | – | – | – | – | – | –
5 | CC[C@H](C)[C@H](NC(=O)[C@H](Cc1ccc(O)cc1)NC(=O)[C@@H]1CCCN1C(=O)[C@@H](N)CCCNC(=N)N)C(=O)N[C@@H](CO)C(=O)N[C@@H](CCCCN)C(=O)N[C@@H](CC(N)=O)C(=O)N[C@@H](CC(=O)O)C(=O)N[C@@H](CC(C)C)C(=O)O [CYRPA_229] (H-RPYISKNDL-OH) | 244 | – | – | – | – | – | – | –
6 | C[C@H](NC(=O)[C@@H](NC(=O)[C@@H](NC(=O)[C@H](CC(N)=O)NC(=O)CNC(=O)[C@H](Cc1ccc(O)cc1)NC(=O)[C@H](CCCCN)NC(=O)[C@H](CCC(=O)O)NC(=O)[C@@H]1CCCN1C(=O)[C@@H](N)CCCCN)[C@@H](C)O)[C@@H](C)O)C(=O)O [CYRPA_316] (H-KPEKYGNTTA-OH) | 836000 | – | – | – | – | – | – | –
7 | CC[C@H](C)[C@H](NC(=O)[C@H](CCCCN)NC(=O)[C@H](CCC(=O)O)NC(=O)[C@@H](NC(=O)[C@H](CO)NC(=O)[C@H](CC(=O)O)NC(=O)[C@H](CCCNC(=N)N)NC(=O)[C@H](CC(N)=O)NC(=O)[C@H](CC(C)C)NC(=O)[C@@H](NC(=O)[C@@H](NC(=O)[C@H](Cc1ccc(O)cc1)NC(=O)[C@@H](NC(=O)[C@H](Cc1ccc(O)cc1)NC(=O)[C@H](CCCCN)NC(=O)[C@H](CC(N)=O)NC(=O)[C@H](CC(C)C)NC(=O)[C@H](Cc1ccc(O)cc1)NC(=O)[C@H](C)NC(=O)[C@H](Cc1ccc(O)cc1)NC(=O)[C@H](CC(=O)O)NC(C)=O)C(C)C)[C@@H](C)O)[C@@H](C)CC)[C@@H](C)O)C(=O)N[C@@H](CCCCN)C(=O)N[C@H](C(=O)N[C@@H](Cc1ccccc1)C(N)=O)[C@@H](C)O [RIPR_002] (Ac-DYAYLNKYVYTILNRDSTEKIKTF-NH2) | – | 0.152 | 16.7 | 6.91 | 16.1 | 1.47 | 50.4 | 0.201
8 | CC(=O)N[C@H](C(=O)N[C@@H](CO)C(=O)N[C@@H](CS)C(=O)N[C@@H](Cc1ccc(O)cc1)C(=O)N[C@@H](CCCNC(=N)N)C(=O)N[C@H](C(=O)N[C@@H](CO)C(=O)N[C@@H](Cc1ccccc1)C(=O)N[C@@H](CC(N)=O)C(=O)N[C@@H](CC(C)C)C(=O)N[C@@H](CC(N)=O)C(=O)N[C@@H](CCCCN)C(=O)N[C@@H](CC(C)C)C(=O)N[C@@H](CCCCN)C(=O)N[C@@H](Cc1ccc(O)cc1)C(=O)N[C@H](C(=O)N[C@H](C(=O)N[C@@H](CCC(=O)O)C(=O)N[C@@H](CO)C(N)=O)[C@@H](C)O)C(C)C)C(C)C)C(C)C [RIPR_006] (Ac-VSCYRVSFNLNKLKYVTES-NH2) | – | 0.446 | 8.78 | 0.952 | 11.3 | 9.32 | 11.5 | 6.96
9 | CC[C@H](C)[C@H](NC(=O)[C@H](CC(N)=O)NC(=O)[C@H](CCC(N)=O)NC(=O)[C@H](CC(N)=O)NC(=O)[C@H](CC(N)=O)NC(=O)[C@H](Cc1ccccc1)NC(=O)[C@@H](NC(=O)[C@H](CS)NC(=O)[C@H](CC(C)C)NC(=O)[C@H](Cc1ccc(O)cc1)NC(=O)[C@H](CC(=O)O)NC(=O)[C@@H](N)Cc1ccc(O)cc1)C(C)C)C(=O)N[C@H](C(=O)N[C@@H](CO)C(=O)N[C@@H](CC(=O)O)C(=O)N[C@@H](CCCCN)C(=O)N[C@@H](CC(N)=O)C(N)=O)[C@@H](C)O [RIPR_007] (H-YDYLCVFNNQNITSDKN-NH2) | – | 2.78 | 4.6 | 3.05 | 99 | 8.65 | 9.26 | 0.165
10 | CC[C@H](C)[C@H](NC(=O)[C@H](CCC(=O)O)NC(=O)[C@@H](NC(=O)[C@H](CCCCN)NC(=O)[C@H](CCCCN)NC(C)=O)C(C)C)C(=O)N[C@@H](Cc1ccccc1)C(=O)N[C@@H](CCCNC(=N)N)C(=O)N[C@@H](CO)C(=O)N[C@@H](CCCNC(=N)N)C(=O)N[C@@H](Cc1ccccc1)C(=O)N[C@@H](CO)C(=O)N[C@@H](CO)C(=O)N[C@@H](CCCCN)C(=O)N[C@@H](CC(C)C)C(=O)N[C@@H](CCC(N)=O)C(=O)N[C@@H](CS)C(=O)N[C@@H](CCC(N)=O)C(N)=O [RIPR_011] (Ac-KKVEIFRSRFSSKLQCQ-NH2) | – | 1.36 | 22 | 13.7 | 65.6 | 9.22 | 9.43 | 0.007
11 | CC[C@H](C)[C@H](NC(=O)[C@H](CS)NC(=O)[C@H](CCC(=O)O)NC(=O)CNC(=O)[C@H](CCCNC(=N)N)NC(=O)[C@H](CO)NC(=O)[C@H](CO)NC(=O)[C@H](CCCNC(=N)N)NC(=O)[C@H](Cc1ccc(O)cc1)NC(=O)[C@H](Cc1ccc(O)cc1)NC(=O)[C@H](Cc1c[nH]cn1)NC(=O)[C@H](CCC(=O)O)NC(=O)[C@H](CCCCN)NC(C)=O)C(=O)N[C@@H](CC(C)C)C(=O)N[C@@H](CC(N)=O)C(=O)N[C@@H](CC(=O)O)C(N)=O [RIPR_017] (Ac-KEHYYRSSRGECILND-NH2) | – | 0.025 | > 100 | 0.489 | 6.44 | 1.38 | > 100 | 58.2
12 | CC[C@H](C)[C@H](NC(=O)[C@H](CCCCN)NC(=O)[C@H](CCCCN)NC(=O)[C@H](CCCCN)NC(=O)[C@H](CC(C)C)NC(=O)[C@H](Cc1ccc(O)cc1)NC(=O)[C@@H](NC(=O)[C@@H](NC(=O)[C@@H](NC(=O)[C@H](Cc1c[nH]cn1)NC(=O)[C@H](Cc1ccccc1)NC(=O)[C@@H](NC(=O)[C@H](CCC(=O)O)NC(=O)[C@H](CC(N)=O)NC(C)=O)[C@@H](C)CC)[C@@H](C)O)[C@@H](C)CC)[C@@H](C)CC)C(=O)NCC(=O)N[C@@H](CC(N)=O)C(=O)N[C@@H](CO)C(=O)N[C@H](C(=O)N[C@H](C(=O)N[C@@H](Cc1ccc(O)cc1)C(=O)N[C@@H](CC(=O)O)C(N)=O)[C@@H](C)CC)C(C)C [RIPR_019] (Ac-NEIFHTIIYLKKKIGNSVIYD-NH2) | – | 0.346 | 3.03 | 3.86 | 1.35 | 0.066 | 3.49 | 0.898
